“And” between values parts separate entries of the source, which are not always exact repeats. Identical values can stand only once. Inconclusive results and toxic doses are left out. Rule for the calls: active = survival T/C of 150% or more; inactive = T/C below 125% in these data.
System: BDF1 mice, P388 leukemia ip, median survival T/C
Test: NCI In Vivo Anticancer Drug Screen. Data for tumor model P388 Leukemia (intraperitoneal) in B6D2F1 (BDF1) mice
Details: endpoint: median survival time, higher = longer survival
Summary of the method: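 Vehicle-dosed animals serve as the reference; survival of compound-dosed, tumour-implanted mice is divided by it.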

[1] = dose: 50.0 mg/kg/injection, schedule: Q04DX003 (ip), vehicle: saline
[2] = dose: 100.0 mg/kg/injection, schedule: Q04DX003 (ip), vehicle: saline
[3] = dose: 25.0 mg/kg/injection, schedule: Q01DX009 (ip), vehicle: saline with Tween-80
[4] = dose: 50.0 mg/kg/injection, schedule: Q01DX009 (ip), vehicle: saline with Tween-80
[5] = dose: 100.0 mg/kg/injection, schedule: Q01DX009 (ip), vehicle: saline with Tween-80
[6] = dose: 100.0 mg/kg/injection, schedule: Q01DX009 (ip), vehicle: Klucel (hydroxypropylcellulose) (HPC)
[7] = dose: 100.0 mg/kg/injection, schedule: Q04DX003 (ip), vehicle: Klucel (hydroxypropylcellulose) (HPC)
[8] = dose: 200.0 mg/kg/injection, schedule: Q01DX009 (ip), vehicle: Klucel (hydroxypropylcellulose) (HPC)
[9] = dose: 200.0 mg/kg/injection, schedule: Q04DX003 (ip), vehicle: Klucel (hydroxypropylcellulose) (HPC)
[10] = dose: 400.0 mg/kg/injection, schedule: Q01DX009 (ip), vehicle: Klucel (hydroxypropylcellulose) (HPC)
[11] = dose: 400.0 mg/kg/injection, schedule: Q04DX003 (ip), vehicle: Klucel (hydroxypropylcellulose) (HPC)
[12] = dose: 75.0 mg/kg/injection, schedule: Q01DX009 (ip), vehicle: saline with Tween-80
[13] = dose: 150.0 mg/kg/injection, schedule: Q01DX009 (ip), vehicle: saline with Tween-80
[14] = dose: 100.0 mg/kg/injection, schedule: Q01DX009 (ip), vehicle: saline
[15] = dose: 200.0 mg/kg/injection, schedule: Q01DX009 (ip), vehicle: saline with Tween-80
[16] = dose: 200.0 mg/kg/injection, schedule: Q04DX003 (ip), vehicle: saline
[17] = dose: 400.0 mg/kg/injection, schedule: Q01DX009 (ip), vehicle: saline
[18] = dose: 400.0 mg/kg/injection, schedule: Q04DX003 (ip), vehicle: saline

Measured: T/C

ClC1OCCOC1Cl (configuration not stated)
inactive: dose: 25.0 mg/kg/injection, schedule: Q01DX009 (ip), vehicle: saline 96 % of control | dose: 50.0 mg/kg/injection, schedule: Q01DX009 (ip), vehicle: saline 100 % of control | [1] 105 % of control | [2] 110 % of control

CC(=O)Nc1cc2c3c(c1)CCN3CCC2
inactive: dose: 3.13 mg/kg/injection, schedule: Q01DX001 (ip), vehicle: saline with Tween-80 95 % of control | dose: 6.25 mg/kg/injection, schedule: Q01DX001 (ip), vehicle: saline with Tween-80 95 % of control | dose: 12.5 mg/kg/injection, schedule: Q01DX001 (ip), vehicle: saline with Tween-80 90 % of control

CCOC(=O)[C@]1(Br)CC[C@@]1(Br)C(=O)OCC
inactive: [3] 112 % of control | [4] 113 % of control and 114 % of control | [5] 117 % of control

Cc1ccc(C(Br)C2=CC(C)(C)c3ccccc3C2=O)cc1 (configuration not stated)
inactive: [6] 118 % of control | [7] 95 % of control | [8] 90 % of control and 95 % of control | [9] 113 % of control | dose: 300.0 mg/kg/injection, schedule: Q01DX009 (ip), vehicle: Klucel (hydroxypropylcellulose) (HPC) 113 % of control | [10] 100 % of control | [11] 113 % of control

CCOc1ccccc1NC1=C(OC)C(=O)C(Nc2ccccc2OCC)=C(OC)C1=O
inactive: [6] 100 % of control | [7] 91 % of control | [8] 95 % of control | [9] 91 % of control and 100 % of control | [10] 100 % of control | [11] 86 % of control

CCCCCCCCCCCCCCC1C(=O)NN(c2ccccc2)C1=O (configuration not stated)
inactive: dose: 37.5 mg/kg/injection, schedule: Q01DX009 (ip), vehicle: saline with Tween-80 108 % of control | [12] 115 % of control | [13] 122 % of control

Nc1ccc(N=Nc2ccccc2)c(N)c1
inactive: [3] 88 % of control | [4] 99 % of control | [6] 91 % of control | [5] 113 % of control | [14] 120 % of control | [2] 86 % of control | [8] 100 % of control | [15] 115 % of control | [16] 100 % of control | [17] 115 % of control | [18] 104 % of control

COc1ccc(CNCCO)cc1
inactive: [1] 108 % of control | [14] 109 % of control | [2] 100 % of control and 116 % of control | dose: 200.0 mg/kg/injection, schedule: Q01DX009 (ip), vehicle: saline 90 % of control | [16] 91 % of control | [17] 111 % of control | [18] 91 % of control and 95 % of control

COc1ccc(C(=O)C(C)C(O)(C(F)(F)F)C(F)(F)F)cc1 (configuration not stated)
inactive: dose: 100.0 mg/kg/injection, schedule: Q01DX001 (ip), vehicle: Klucel (hydroxypropylcellulose) (HPC) 109 % of control | dose: 200.0 mg/kg/injection, schedule: Q01DX001 (ip), vehicle: Klucel (hydroxypropylcellulose) (HPC) 109 % of control | dose: 400.0 mg/kg/injection, schedule: Q01DX001 (ip), vehicle: Klucel (hydroxypropylcellulose) (HPC) 109 % of control

COC(=O)C1C(=O)COC1C (configuration not stated)
inactive: dose: 12.5 mg/kg/injection, schedule: Q01DX005 (ip), vehicle: saline with Tween-80 109 % of control | dose: 25.0 mg/kg/injection, schedule: Q01DX005 (ip), vehicle: saline with Tween-80 112 % of control | dose: 50.0 mg/kg/injection, schedule: Q01DX005 (ip), vehicle: saline with Tween-80 110 % of control

O=C(O)c1ccc(C(Cl)(Cl)Cl)cc1
inactive: dose: 18.75 mg/kg/injection, schedule: Q01DX009 (ip), vehicle: Klucel (hydroxypropylcellulose) (HPC) 95 % of control | dose: 33.0 mg/kg/injection, schedule: Q01DX009 (ip), vehicle: saline with Tween-80 116 % of control | [4] 112 % of control | [12] 108 % of control | [13] 123 % of control

CCS(=O)c1ncc2cnccn12 (configuration not stated)
inactive: dose: 12.5 mg/kg/injection, schedule: Q04DX003 (ip), vehicle: water 109 % of control | dose: 25.0 mg/kg/injection, schedule: Q04DX003 (ip), vehicle: water 92 % of control | dose: 50.0 mg/kg/injection, schedule: Q01DX009 (ip), vehicle: water 102 % of control | dose: 50.0 mg/kg/injection, schedule: Q04DX003 (ip), vehicle: water 100 % of control and 101 % of control | dose: 100.0 mg/kg/injection, schedule: Q01DX009 (ip), vehicle: water 94 % of control

CCCCCCCCCC(=O)NN
inactive: dose: 50.0 mg/kg/injection, schedule: Q01DX001 (ip), vehicle: saline sonified 95 % of control | dose: 100.0 mg/kg/injection, schedule: Q01DX001 (ip), vehicle: saline sonified 104 % of control | dose: 200.0 mg/kg/injection, schedule: Q01DX001 (ip), vehicle: saline sonified 104 % of control

C1CSCSC1
inactive: dose: 6.25 mg/kg/injection, schedule: Q04DX003 (ip), vehicle: Klucel (hydroxypropylcellulose) (HPC) 100 % of control | dose: 12.5 mg/kg/injection, schedule: Q04DX003 (ip), vehicle: Klucel (hydroxypropylcellulose) (HPC) 95 % of control | dose: 25.0 mg/kg/injection, schedule: Q04DX003 (ip), vehicle: Klucel (hydroxypropylcellulose) (HPC) 87 % of control

CCCCC(=O)/C=C/c1ccccc1
inactive: [4] 102 % of control | [5] 109 % of control | [15] 120 % of control

CC(C)N(C(C)C)S(=O)(=O)c1ccccc1C(O)(c1ccccc1)c1ccccc1
inactive: [3] 90 % of control | [4] 86 % of control | [5] 90 % of control

COc1cc2c3c(c1)C(=O)CCN3CCC2
inactive: dose: 50.0 mg/kg/injection, schedule: Q04DX003 (ip), vehicle: Klucel (hydroxypropylcellulose) (HPC) 95 % of control | [7] 95 % of control | [9] 87 % of control

CC(=O)n1nc2c(c1CC(C)C)C(=O)C(Nc1ccccc1)=CC2=O
inactive: dose: 100.0 mg/kg/injection, schedule: Q04DX002 (ip), vehicle: saline with Tween-80 102 % of control | dose: 200.0 mg/kg/injection, schedule: Q04DX002 (ip), vehicle: saline with Tween-80 108 % of control | dose: 400.0 mg/kg/injection, schedule: Q04DX002 (ip), vehicle: saline with Tween-80 106 % of control

COC(=O)c1c(C(=O)OC)c1=[N+]=[N-]
inactive: [4] 101 % of control | [5] 96 % of control | [15] 99 % of control

COC(=O)C1C(O)C(C)C(O)C(C)(O)C=C(C)C2=C3C(=C(C)C(=O)c4c(O)c(c(C)c(OC(C)=O)c43)NC(=O)C(C)=C/C=C\C(C)(O)C(O)C(C)C1O)OCO2 (configuration not stated)
inactive: dose: 50.0 mg/kg/injection, schedule: Q01DX009 (ip), vehicle: Klucel (hydroxypropylcellulose) (HPC) 119 % of control | [6] 110 % of control | [8] 116 % of control

CCN(CC)c1c(C)nnc2c(-c3ccccc3)nnn12
inactive: dose: 50.0 mg/kg/injection, schedule: Q04DX003 (ip), vehicle: saline with Tween-80 97 % of control | dose: 100.0 mg/kg/injection, schedule: Q04DX003 (ip), vehicle: saline with Tween-80 100 % of control | dose: 200.0 mg/kg/injection, schedule: Q04DX003 (ip), vehicle: saline with Tween-80 97 % of control

CCOC(=O)COc1ccc(C=O)cc1
inactive: [7] 103 % of control | [11] 92 % of control

O=C(O)c1cc(S(=O)(=O)F)cc(S(=O)(=O)F)c1
inactive: dose: 25.0 mg/kg/injection, schedule: Q01DX009 (ip), vehicle: alcohol 113 % of control | dose: 33.0 mg/kg/injection, schedule: Q01DX009 (ip), vehicle: alcohol 116 % of control | dose: 50.0 mg/kg/injection, schedule: Q01DX009 (ip), vehicle: alcohol 112 % of control

Source: PubChem BioAssay AID328 (DTP/NCI, 2004)
